# Source: the CheMixHub ionic liquid set
# ± gives the uncertainty stated by the source.
# Test: xn = mol fraction of the nth substance listed
compound,measurement,setting,value
CC(=O)c1ccccc1 + CCCC[n+]1ccn(C)c1.F[B-](F)(F)F,viscosity,"293.15 K, 100 kPa, x1 = 0.0513",79 ± 16 mPa·s
same,viscosity,"293.15 K, 100 kPa, x1 = 0.1001",56 ± 11 mPa·s
same,viscosity,"293.15 K, 100 kPa, x1 = 0.2046",43.6 ± 8.7 mPa·s
same,viscosity,"293.15 K, 100 kPa, x1 = 0.306",42.4 ± 8.5 mPa·s
same,viscosity,"293.15 K, 100 kPa, x1 = 0.3976",41.7 ± 8.3 mPa·s
same,viscosity,"293.15 K, 100 kPa, x1 = 0.5064",34.4 ± 6.9 mPa·s
same,viscosity,"293.15 K, 100 kPa, x1 = 0.6079",29.5 ± 5.9 mPa·s
same,viscosity,"293.15 K, 100 kPa, x1 = 0.7065",26 ± 5.2 mPa·s
same,viscosity,"293.15 K, 100 kPa, x1 = 0.8054",22.3 ± 4.5 mPa·s
same,viscosity,"293.15 K, 100 kPa, x1 = 0.9026",11.8 ± 2.4 mPa·s
same,viscosity,"293.15 K, 100 kPa, x1 = 0.9516",7 ± 1.4 mPa·s
same,viscosity,"293.15 K, 100 kPa, x1 = 1",1.91 ± 0.38 mPa·s
same,viscosity,"303.15 K, 100 kPa, x1 = 0.0513",50 ± 10 mPa·s
same,viscosity,"303.15 K, 100 kPa, x1 = 0.1001",38.6 ± 7.7 mPa·s
same,viscosity,"303.15 K, 100 kPa, x1 = 0.2046",30.8 ± 6.2 mPa·s
same,viscosity,"303.15 K, 100 kPa, x1 = 0.306",28.6 ± 5.7 mPa·s
same,viscosity,"303.15 K, 100 kPa, x1 = 0.3976",25.9 ± 5.2 mPa·s
same,viscosity,"303.15 K, 100 kPa, x1 = 0.5064",21.3 ± 4.3 mPa·s
same,viscosity,"303.15 K, 100 kPa, x1 = 0.6079",16.9 ± 3.4 mPa·s
same,viscosity,"303.15 K, 100 kPa, x1 = 0.7065",13.7 ± 2.7 mPa·s
same,viscosity,"303.15 K, 100 kPa, x1 = 0.8054",11.7 ± 2.3 mPa·s
same,viscosity,"303.15 K, 100 kPa, x1 = 0.9026",8 ± 1.6 mPa·s
same,viscosity,"303.15 K, 100 kPa, x1 = 0.9516",5 ± 1 mPa·s
same,viscosity,"303.15 K, 100 kPa, x1 = 1",1.65 ± 0.33 mPa·s
same,viscosity,"313.15 K, 100 kPa, x1 = 0.0513",30.5 ± 6.1 mPa·s
same,viscosity,"313.15 K, 100 kPa, x1 = 0.1001",21.6 ± 4.3 mPa·s
same,viscosity,"313.15 K, 100 kPa, x1 = 0.2046",19 ± 3.8 mPa·s
same,viscosity,"313.15 K, 100 kPa, x1 = 0.306",16.9 ± 3.4 mPa·s
same,viscosity,"313.15 K, 100 kPa, x1 = 0.3976",11.8 ± 2.4 mPa·s
same,viscosity,"313.15 K, 100 kPa, x1 = 0.5064",10.8 ± 2.2 mPa·s
same,viscosity,"313.15 K, 100 kPa, x1 = 0.6079",9.8 ± 2 mPa·s
same,viscosity,"313.15 K, 100 kPa, x1 = 0.7065",8.3 ± 1.7 mPa·s
same,viscosity,"313.15 K, 100 kPa, x1 = 0.8054",7.1 ± 1.4 mPa·s
same,viscosity,"313.15 K, 100 kPa, x1 = 0.9026",5.7 ± 1.1 mPa·s
same,viscosity,"313.15 K, 100 kPa, x1 = 0.9516",3.65 ± 0.73 mPa·s
same,viscosity,"313.15 K, 100 kPa, x1 = 1",1.37 ± 0.27 mPa·s
same,viscosity,"323.15 K, 100 kPa, x1 = 0.0513",20.4 ± 4.1 mPa·s
same,viscosity,"323.15 K, 100 kPa, x1 = 0.1001",15.4 ± 3.1 mPa·s
same,viscosity,"323.15 K, 100 kPa, x1 = 0.2046",13.7 ± 2.7 mPa·s
same,viscosity,"323.15 K, 100 kPa, x1 = 0.306",12.2 ± 2.4 mPa·s
same,viscosity,"323.15 K, 100 kPa, x1 = 0.3976",9.7 ± 1.9 mPa·s
same,viscosity,"323.15 K, 100 kPa, x1 = 0.5064",7.6 ± 1.5 mPa·s
same,viscosity,"323.15 K, 100 kPa, x1 = 0.6079",6.5 ± 1.3 mPa·s
same,viscosity,"323.15 K, 100 kPa, x1 = 0.7065",5.4 ± 1.1 mPa·s
same,viscosity,"323.15 K, 100 kPa, x1 = 0.8054",4.79 ± 0.96 mPa·s
same,viscosity,"323.15 K, 100 kPa, x1 = 0.9026",3.81 ± 0.76 mPa·s
same,viscosity,"323.15 K, 100 kPa, x1 = 0.9516",2.8 ± 0.56 mPa·s
same,viscosity,"323.15 K, 100 kPa, x1 = 1",1.17 ± 0.23 mPa·s
same,viscosity,"333.15 K, 100 kPa, x1 = 0.0513",12.9 ± 2.6 mPa·s
same,viscosity,"333.15 K, 100 kPa, x1 = 0.1001",11.5 ± 2.3 mPa·s
same,viscosity,"333.15 K, 100 kPa, x1 = 0.2046",10.3 ± 2.1 mPa·s
same,viscosity,"333.15 K, 100 kPa, x1 = 0.306",9.2 ± 1.8 mPa·s
same,viscosity,"333.15 K, 100 kPa, x1 = 0.3976",6.7 ± 1.4 mPa·s
same,viscosity,"333.15 K, 100 kPa, x1 = 0.5064",6.2 ± 1.2 mPa·s
same,viscosity,"333.15 K, 100 kPa, x1 = 0.6079",5.7 ± 1.1 mPa·s
same,viscosity,"333.15 K, 100 kPa, x1 = 0.9026",3.23 ± 0.65 mPa·s
same,viscosity,"333.15 K, 100 kPa, x1 = 0.9516",2.22 ± 0.44 mPa·s
same,viscosity,"333.15 K, 100 kPa, x1 = 1",1.02 ± 0.2 mPa·s
CCCC[n+]1ccn(C)c1.O=S(=O)([N-]S(=O)(=O)C(F)(F)F)C(F)(F)F + CC(=O)[O-].CCCC[n+]1ccn(C)c1,viscosity,"298.15 K, 101 kPa, x2 = 0",50.3 ± 2.1 mPa·s
same,electrical conductivity,"313.15 K, 101 kPa, x1 = 1",0.683 ± 0.027 S/m
same,viscosity,"313.15 K, 101 kPa, x1 = 1",28.5 ± 2.9 mPa·s
same,viscosity,"353.15 K, 101 kPa, x2 = 0",9.52 ± 0.4 mPa·s
Nc1ncnc2[nH]cnc12 + CC(=O)[O-].CC[n+]1ccn(C)c1,viscosity,"298.15 K, 100 kPa, x1 = 0.2012",960 mPa·s
CCCC[n+]1ccn(C)c1.O=S(=O)([N-]S(=O)(=O)C(F)(F)F)C(F)(F)F + CCCCCCCCO,viscosity,"298 K, 100 kPa, x1 = 1",49.7 ± 1.3 mPa·s
CCCC[n+]1ccn(C)c1.O=S(=O)([N-]S(=O)(=O)C(F)(F)F)C(F)(F)F + Nc1ccccc1,viscosity,"288.15 K, 100 kPa, x2 = 0",78.4 ± 3.5 mPa·s
same,viscosity,"293.15 K, 100 kPa, x2 = 0",61.5 ± 2.7 mPa·s
same,viscosity,"298.15 K, 100 kPa, x2 = 0",49.1 ± 2.2 mPa·s
same,viscosity,"303.15 K, 100 kPa, x2 = 0",39.9 ± 1.8 mPa·s
same,viscosity,"308.15 K, 100 kPa, x2 = 0",33.2 ± 1.5 mPa·s
same,viscosity,"313.15 K, 100 kPa, x2 = 0",27.7 ± 1.2 mPa·s
same,viscosity,"318.15 K, 100 kPa, x2 = 0",23.5 ± 1 mPa·s
same,viscosity,"323.15 K, 100 kPa, x2 = 0",20.13 ± 0.89 mPa·s
same,viscosity,"328.15 K, 100 kPa, x2 = 0",17.39 ± 0.77 mPa·s
same,viscosity,"333.15 K, 100 kPa, x2 = 0",15.2 ± 0.67 mPa·s
